Values of other authors in patent publication US20130261032A1, “ADDITIVE FOR SUBTERRANEAN TREATMENT” (SCHLUMBERGER TECHNOLOGY CORPORATION, priority 2012, published 2013).
Read-outs that look alike come from different tables or passages of the source.

Question: Which “acute oral toxicity, LD50” value (in vivo, po) does the source give for CCO [ethanol] here?
Answer: The value was 7060 mg/kg.

Question: Which “acute oral toxicity, LD50” value (oral) does the source give for CC(O)CO (stereo not drawn) [propylene glycol] here?
Answer: The value was 20,000 mg/kg.

Question: Which “acute oral toxicity, LD50” value (oral) does the source give for C[N+](C)(C)CC(=O)[O-] [TMG, trimethyl glycine] here?
Answer: Its value is “greater than 10,000 mg/kg”.
